Assay results from PubChem BioAssay (NCI).
“And” between values parts separate entries of the source, which are not always exact repeats. Equal values may be shown once.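 Briefly, cells in 96-well plates were exposed to five compound concentrations for 48 h, and endpoints were estimated by linear interpolation. Abbreviation: GI50, concentration required for 50% inhibition of growth. TGI denotes the concentration required for complete inhibition of growth.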

Tests used:
Experiment in all cases: NCI tumour cell line growth inhibition, 48 h
786-0 renal = test system: 786-0 renal
ACHN renal = test system: ACHN renal
BT-549 breast = test system: BT-549 breast
DU-145 prostate = test system: DU-145 prostate
HS 578T breast = test system: HS 578T breast
MDA-MB-231 breast = test system: MDA-MB-231 breast

Structure (SMILES)	GI50 (786-0 renal)	TGI (786-0 renal)	GI50 (ACHN renal)	TGI (ACHN renal)	GI50 (BT-549 breast)	TGI (BT-549 breast)	GI50 (DU-145 prostate)	TGI (DU-145 prostate)	GI50 (HS 578T breast)	TGI (HS 578T breast)	GI50 (MDA-MB-231 breast)	TGI (MDA-MB-231 breast)
COc1ccccc1Nc1cc(O)c2c(=O)cc(-c3ccccc3)oc2c1	5150 nM	27 µM	3380 nM	13 µM	4960 nM	37.2 µM	4.35 µM	16.4 µM	3.61 µM	32.6 µM	3960 nM	18.4 µM
COc1cc(/C=C/c2cc(/C=C/c3ccc(O)c(OC)c3)n(C(=O)c3ccc(Cl)cc3)n2)ccc1O	2550 nM	16.2 µM	1030 nM	13.7 µM	1830 nM	8.32 µM	3.03 µM	13.9 µM	3.23 µM	> 100 µM	2840 nM	19.6 µM
CC(C)(C)C(=O)OCOP(=O)(NCc1ccccc1)C1CCCN(O)C1=O (stereo not drawn)	3150 nM	> 100 µM	2500 nM	67.4 µM	5810 nM	53.4 µM	4.03 µM	> 100 µM	1.28 µM	6.64 µM	2300 nM	19.9 µM
O=C(CSc1nc2c(n1Nc1ccccc1)-c1ccccc1SC2)Nc1nc(-c2ccc(Cl)cc2)cs1	12700 nM	34.8 µM	35400 nM	> 100 µM	33500 nM	> 100 µM	> 100 µM	> 100 µM	6.35 µM	78.7 µM	33300 nM	> 100 µM
O=C(NCCCCN1CCOCC1)c1cc2ccccc2o1	> 100000 nM	> 100 µM	> 100000 nM	> 100 µM	> 100000 nM	> 100 µM	> 100 µM	> 100 µM	> 100 µM	> 100 µM	> 100000 nM	> 100 µM
Cc1cnc2n1S(=O)(=O)c1cc(C(=O)Nc3cccc4nsnc34)c(Cl)cc1S2	> 100000 nM	> 100 µM	27800 nM	85.5 µM	> 100000 nM	> 100 µM	25.5 µM	67.9 µM	24.5 µM	63.3 µM	12400 nM	30.3 µM
O=C(O)CSc1n[nH]c(=O)[nH]c1=O		> 100 µM		> 100 µM		> 100 µM		> 100 µM		> 100 µM		> 100 µM
CCc1ccc(Oc2c(-c3ccc(OCc4ccc(Cl)cc4)cc3O)n[nH]c2C(F)(F)F)cc1	1720 nM	3.27 µM	1890 nM	4 µM	2040 nM	3.95 µM	2.64 µM	7.44 µM	2.66 µM	8.11 µM	1910 nM	3.96 µM
O=c1c2c(nc3n1CCS3)[nH]c1cc([N+](=O)[O-])ccc12	> 100000 nM	> 100 µM	> 100000 nM	> 100 µM			> 100 µM	> 100 µM	> 100 µM	> 100 µM	> 100000 nM	> 100 µM
Oc1ccc(C=Nc2ccccc2O)cc1		67.4 µM		> 100 µM		> 100 µM		31.6 µM		> 100 µM		> 100 µM
O=C1NC(=C(Cl)Cl)/C(=N/S(=O)(=O)N2CCCCC2)N1	2790 nM	7.74 µM	1960 nM	3.42 µM	2330 nM	5.62 µM	3.54 µM	12.2 µM	3.18 µM	10.7 µM	1850 nM	3.42 µM
C=C(c1ccc(OC)c(/C=C/C(=O)c2ccc3c(c2)OCO3)c1)c1cc(OC)c(OC)c(OC)c1	2160 nM	5.61 µM			2150 nM	7.27 µM	5.54 µM	> 100 µM	4.65 µM	> 100 µM	5970 nM	> 100 µM
Fc1ccc(-c2c(-c3ccncc3)nc3n2CCS3)cc1	> 25000 nM	> 25 µM	> 25000 nM	> 25 µM	> 25000 nM	> 25 µM	> 25 µM	> 25 µM	> 25 µM	> 25 µM	> 25000 nM	> 25 µM
CC(C)C[C@H](NC(=O)CNC(=O)c1cc(Cl)ccc1Cl)B(O)O	27.8 nM	0.814 µM	< 18.2 nM	15.8 µM	< 14.5 nM	0.137 µM	< 0.0262 µM	15.3 µM	0.0489 µM	> 50.4 µM	30.2 nM	0.14 µM
Cc1nc([N+](=O)[O-])cn1-c1nc2ccccn2c1[N+](=O)[O-]		> 100 µM		> 100 µM		> 100 µM		83.6 µM		> 100 µM		> 100 µM
COc1ccc2ncn(-c3cc(O[C@H](C)c4ccccc4C(F)(F)F)c(C(N)=O)s3)c2c1	592 nM	5.79 µM	3170 nM	25 µM	474 nM	7 µM	0.0784 µM	0.242 µM	0.31 µM	7.18 µM	167 nM	5.19 µM
O=C(O)c1cc(-c2ccc3cc4c(cc3c2)OCO4)nc2ccccc12		> 100 µM		> 100 µM		> 100 µM		> 100 µM		> 100 µM		> 100 µM
Cc1onc(-c2ccccc2)c1C(=O)N/N=C/c1cc(Cl)cc(Cl)c1O	5010 nM	50.7 µM	2670 nM	> 100 µM	12100 nM	49.4 µM	6.72 µM	> 100 µM	17.8 µM	> 100 µM	4270 nM	35.7 µM
C[C@@H](Oc1cc(-n2cnc3ccc(OC4CCN(C)CC4)cc32)sc1C(N)=O)c1ccccc1Cl	95.1 nM	3.48 µM	212 nM	9.19 µM	168 nM	5.28 µM			0.0419 µM	0.597 µM	22.5 nM	0.53 µM
COc1ccc(Nc2nc3cc(N)cc(N)c3nc2-c2ccccc2)cc1	16000 nM	31.2 µM	15300 nM	43.3 µM	13400 nM	31.9 µM	39.3 µM	> 100 µM	14.3 µM	46.5 µM	11600 nM	25.2 µM
CCOC(=O)c1cc(C(=O)c2ccc(OC)cc2)n2ccc(/C=C/c3cc[n+](CC(=O)c4ccc(OC)cc4)cc3)cc12	1980 nM	3.94 µM					2.05 µM	5.16 µM			1580 nM	3.22 µM

Structure (SMILES)	GI50 (786-0 renal)	TGI (786-0 renal)	GI50 (ACHN renal)	TGI (ACHN renal)	GI50 (BT-549 breast)	TGI (BT-549 breast)	GI50 (DU-145 prostate)	TGI (DU-145 prostate)	GI50 (HS 578T breast)	TGI (HS 578T breast)	GI50 (MDA-MB-231 breast)	TGI (MDA-MB-231 breast)
CC[C@H](C)[C@H](NC(=O)[C@H]1CCCCN1C)C(=O)N(C)[C@H](C[C@@H](OC(C)=O)c1cccc(C(=O)N[C@@H](Cc2ccccc2)C[C@H](C)C(=O)OC)n1)C(C)C	5.26 nM and 4.25 nM	18.3 µM	6.38 nM and 13 nM	> 25 µM	2.5 nM	0.222 µM	0.00282 µM and 0.0025 µM	> 25 µM	0.0423 µM and 0.00613 µM	> 25 µM	4.27 nM and 2.67 nM	0.85 µM
CCOC(=O)Cc1c(C)c2cc(C(=O)c3ccccc3)c(O)cc2oc1=O		> 100 µM		> 100 µM		59.8 µM		> 100 µM		97.1 µM		72 µM
COc1cc(/C=C2\CC3C4CC=C5C[C@@H](OC(C)=O)CC[C@]5(C)C4CC[C@]3(C)C2=O)ccc1OCCN1CCCCC1 (stereo partly drawn)	1660 nM	3.1 µM	3640 nM	14.4 µM	15100 nM	31.7 µM	5.18 µM	17.4 µM			3310 nM	7.89 µM
CC1Cc2c(Cl)ncnc2N(C)c2ccc(Cl)cc21 (stereo not drawn)	321 nM	> 100 µM	348 nM	> 100 µM	309 nM	11.1 µM	0.589 µM	> 100 µM	0.342 µM	> 100 µM	274 nM	0.691 µM
CN(Cc1ccccc1)Cn1ccnc1		> 100 µM		> 100 µM		> 100 µM		> 100 µM		> 100 µM		98.1 µM
CN[C@H]1CN(c2ccc3c(=O)c(C(=O)O)cn(-c4nccs4)c3n2)C[C@@H]1OC	426 nM	6.18 µM			758 nM	3.05 µM	1.28 µM	5.28 µM	1.49 µM	6.68 µM	1520 nM	6.92 µM
O=C(CN(/C=C/C(=O)C(F)(F)F)c1ccc(Cl)cc1)c1ccc(Cl)cc1	18600 nM	65.1 µM	8010 nM	20.7 µM	17600 nM	43.9 µM	15.1 µM	29.5 µM	13.8 µM	42.5 µM	11500 nM	23.7 µM
Nc1nc(/C=C\c2ccc([N+](=O)[O-])s2)nc(N2CCN(c3ccccc3)CC2)n1	24200 nM	48.7 µM	19000 nM	41.4 µM	21800 nM	48 µM	21.9 µM	51.4 µM	0.54 µM	14.6 µM	13000 nM	29.6 µM
Cc1ccc(O)c(NC(=O)c2cccc(Nc3ccnc(C(F)(F)F)c3)c2)c1	8220 nM	51.5 µM	9650 nM	48.8 µM	3180 nM	21.6 µM	16.4 µM	71.5 µM	16.1 µM	40.3 µM	11600 nM	44.8 µM
C=CN(C(=O)N1CCN(c2cc3c(cc2F)c(=O)c(C(=O)O)cn3C2CC2)CC1)c1nc(-c2ccc(OC)cc2)cs1	3370 nM	23.1 µM	3770 nM	> 100 µM	2390 nM	7.52 µM	3.93 µM	> 100 µM	3.22 µM	14.5 µM		
COc1cc2c(cc1OC(C)C)[C@H](c1ccc(Cl)cc1)N(c1ccc(N(C)CC3CCC(N4CCN(C)C(=O)C4)CC3)cc1)C(=O)C2 (stereo partly drawn)	2850 nM	8.73 µM	320 nM	3.62 µM	2180 nM	7.7 µM	5.3 µM	11.2 µM	3.48 µM	13.1 µM	2040 nM	4.02 µM
OCC1C(OCc2ccccc2)C(OCc2ccccc2)C(OCc2ccccc2)CN1Cc1ccccc1 (stereo not drawn)		> 100 µM		17.9 µM				> 100 µM		> 100 µM		> 100 µM
Clc1c(Cl)[n+](Cc2ccc3ccccc3c2)cn1Cc1ccc2ccccc2c1	1650 nM	3.11 µM	1920 nM	3.66 µM	1670 nM	3.09 µM	1.53 µM	3.01 µM	1.71 µM	4.41 µM	1420 nM	2.93 µM
CNC(=O)c1c(C)oc2cc(Oc3ncnc4cc(OC)c(OC)cc34)ccc12	> 100000 nM	> 100 µM	> 100000 nM	> 100 µM	> 100000 nM	> 100 µM	> 100 µM	> 100 µM	4.18 µM	> 100 µM	> 100000 nM	> 100 µM
Cc1c(-c2cnccn2)ssc1=S		> 77.4 µM		> 100 µM		68.5 µM		> 100 µM		91.8 µM		> 100 µM
O=c1oc2ccc(I)cc2c(=O)n1-c1ccc(Br)cc1F	2420 nM	7.12 µM	751 nM	10.7 µM	525 nM	2.67 µM	1.04 µM	28.8 µM	0.345 µM	3.14 µM	457 nM	3.79 µM
CCc1nc(N)nc(N)c1-c1ccc(Cl)c([N+](=O)[O-])c1		> 100 µM		> 100 µM		> 100 µM		> 100 µM		> 100 µM		> 100 µM
COc1ccc2c(c1)C(=O)c1c-2n(CCCN(C)C)c(=O)c2ccccc12	176 nM	2.3 µM	116 nM	0.503 µM	521 nM	3.11 µM	0.249 µM	2.82 µM	0.624 µM	5.99 µM	1860 nM	12.9 µM
CCc1cccc(C(C)C)c1NC(=O)C(=O)C1C(=O)Nc2ccccc2S1=O (stereo not drawn)		> 100 µM		> 100 µM		> 100 µM		> 100 µM		> 100 µM		> 100 µM
COc1ccc(/C=C\c2cc(OC)c(OC)c(OC)c2)cc1OCC(=O)Nc1nc2ccc(F)cc2s1	7120 nM	> 100 µM	3330 nM	> 100 µM	16700 nM	> 100 µM	8.97 µM	> 100 µM	> 100 µM	> 100 µM	9340 nM	> 100 µM
